Data: US20090055964A1, “MPO1 GENE AND PROTEIN AND METHODS OF USE” (priority 2006, published 2009)

How the values were obtained:
[1] = target: T1, recombinant TRX-NtMPO1 fusion protein (Nicotiana tabacum, UniProt A0A1S4BDC4); experiment: spectrophotometric amine oxidase assay of recombinant TRX-NtMPO1 with diamine substrates; conditions: for Vmax: substrate kinetics, Lineweaver-Burk plots, three independent extracts
T1 sequence (A0A1S4BDC4 1-790): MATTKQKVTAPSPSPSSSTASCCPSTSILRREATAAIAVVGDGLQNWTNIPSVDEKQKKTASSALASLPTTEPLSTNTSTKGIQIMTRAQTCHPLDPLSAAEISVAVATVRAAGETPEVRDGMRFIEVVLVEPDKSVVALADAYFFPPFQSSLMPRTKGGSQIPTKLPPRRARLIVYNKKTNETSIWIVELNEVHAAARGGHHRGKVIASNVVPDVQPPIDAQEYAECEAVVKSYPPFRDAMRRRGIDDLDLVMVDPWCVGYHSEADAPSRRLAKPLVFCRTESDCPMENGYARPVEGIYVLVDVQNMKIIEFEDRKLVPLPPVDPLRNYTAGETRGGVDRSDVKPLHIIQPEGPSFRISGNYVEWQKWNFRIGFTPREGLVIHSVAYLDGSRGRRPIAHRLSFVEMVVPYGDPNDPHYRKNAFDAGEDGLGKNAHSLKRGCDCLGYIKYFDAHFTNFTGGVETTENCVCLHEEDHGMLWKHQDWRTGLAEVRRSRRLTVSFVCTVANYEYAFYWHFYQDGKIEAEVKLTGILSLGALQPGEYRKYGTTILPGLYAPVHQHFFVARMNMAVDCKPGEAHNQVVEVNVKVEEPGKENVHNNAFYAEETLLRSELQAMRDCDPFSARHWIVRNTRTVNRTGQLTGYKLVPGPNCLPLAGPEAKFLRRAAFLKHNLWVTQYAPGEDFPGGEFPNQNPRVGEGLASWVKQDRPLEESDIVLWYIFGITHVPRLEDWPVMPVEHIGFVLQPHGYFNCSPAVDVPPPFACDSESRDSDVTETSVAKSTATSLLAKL
Protocol: This modified fragment was cloned into pCR2.1 (Invitrogen) to yield pJGJ367. […] Finally, a 2.6 Kb NcoI-XhoI (partial) fragment was cut from pJGJ369 and ligated into pET32a+ similarly cut, to yield pJGJ389. Plasmid pJGJ389 was transformed into the Rosetta E. coli strain (Novagen, Madison, Wis.) for expression of a recombinant […] protein. Mid-log phase Rosetta/pJGJ389 cells were cultured overnight in LB media supplemented with 100 ug/ml Ampicillin, 30 ug/ml Chloramphenicol, and 0.2 mM isopropyl-β-D-thiogalactoside at 18° C. at 250 rpm. The cells were pelleted, lysed, and the native protein extract incubated with Ni-NTA superflow resin, and the TRX-MPO1 was eluted as per manufacture's instructions (Qiagen, Valencia, Calif.). The TRX-MPO1 enriched extract was mixed 1:1 (v:v) with 100% glycerol and stored at −20° C.

NCCCN = experiment: purified protein, by the assay type; conditions: other: substrate kinetics, Lineweaver-Burk plots, three independent extracts; 18.0 °C
Protocol: Mid-log phase Rosetta/pJGJ389 cells were cultured overnight in LB media supplemented with 100 ug/ml Ampicillin, 30 ug/ml Chloramphenicol, and 0.2 mM isopropyl-β-D-thiogalactoside at 18° C. at 250 rpm. The cells were pelleted, lysed, and the native protein extract incubated with Ni-NTA superflow resin, and the TRX-MPO1 was eluted as per manufacture's instructions (Qiagen, Valencia, Calif.). The TRX-MPO1 enriched extract was mixed 1:1 (v:v) with 100% glycerol and stored at −20° C. […] Background-corrected diamine oxidase rates were graphed as Lineweaver-Burk plots in order to estimate the Vmax and Km of the recombinant TRX -NtMPO1 fusion protein isolated from three independent extracts.

For `NCCCCN` [putrescine], the Vmax [1] was 0.0007 ± 0.0001 mM/min.

With `CNCCCCN` [N-methylputrescine, N-methyl-1,4 diaminebutane] the Vmax [1] was 0.0017 ± 0.0001 mM/min.

`NCCCCCN` [cadaverine] showed a Vmax [1] of 0.0003 ± 0.00004 mM/min.

Work on “recombinant TRX-NtMPO1 fusion protein (Nicotiana tabacum)” yielded a Km (NCCCN) of 350 ± 30 µM, a Vmax (NCCCN) of 0.7 µM/min and a Vmax/Km (NCCCN) of 0.00193 min⁻¹.

For `NCCCN` [1,3-diamine propane, 1,3-diaminepropane], the “oxidative deamination as substrate by recombinant TRX-MPO1” value ([1]; qualitative, different kinetics for each substrate) was “oxidatively deaminated”.
